Experiments:
[1] = test system: cervix; conditions: 2-mg dose in methylcellulose gel, MacLennan et al. (1981); cited from earlier work
[2] = test system: cervix; conditions: 3000 units in the cervical os, Perezgrovas and Anderson (1982); cited from earlier work
[3] = RP-HPLC stability of topical relaxin (3% methylcellulose gel); assay type: physicochemical; conditions: in contrast to shortened B-chain human relaxin
Method: The RP-HPLC method used for analyzing the liquid relaxin formulation, described in Example I, was modified for use with topical relaxin samples. Due to the high viscosity of the gel, samples were diluted ten-fold with water, vortexed for ^~ 5 minutes to homogenize the gel, and left undisturbed to let the bubbles rise. Analysis of these samples was performed by injecting 250 μl onto a C4-300 SynChropak (4.6×250 mm) column at room temperature. The initial equilibration buffer was 18% acetonitrile, 0.1% trifluoroacetic acid. The elution was carried out by running a 1%/min. increasing linear acetonitrile gradient to a final concentration of 45% acetonitrile after 30 minutes. The flow rate was held constant at 1.0 ml/min. and the absorbance was monitored at 214 nm. The "slowdown" step (the time it takes to draw the viscous gel into the metering device) was increased from […].
Three significant stability experiments were performed on the topical relaxin formulation. The first was to measure the stability of these preparations after being left out at room temperature for five weeks. The sample remained in the original syringe, subject to the fluctuations of temperature and light.
The second study was a measure of the stability of topical relaxin under well controlled conditions at 5° C. and 25° C. […]

[4] = test system: rabbit cervix; assay: Efficacy on ripening of the rabbit cervix, intravaginal gel; assay type: in vivo; conditions: initial study, 300 μg/ml topical gel, 0.5 ml intravaginally, eighteen hours after application
Method: Mature pregnant female New Zealand rabbits weighing 4.5 to 6.0 kg were studied. […] Both hormones were applied intravaginally by means of a syringe and a catheter in a volume of 0.5 ml. Control animals received the vehicle alone. After 16-18 hours, the animals were sacrificed using a lethal dose of pentobarbital. […] Paraffin sections were cut and stained with hematoxylin/eosin and alcian blue PAS. Sections were evaluated for general morphology, and specifically for the degree of separation of muscular tissue and collagen fibrils in the submucosa and for the presence of characteristic PAS positive giant cells, which are multinucleate cells of macrophage origin that normally infiltrate the cervix during labor. The measurement of giant cells is accomplished using the procedure described by MacLennan et al., Am J. Obstet. Gynecol., 152: 691-696 (1985).

Question: For porcine relaxin, which “effect on cervical score” value [1] is on record?
Answer: The value was “improve the cervical score”.

Question: And the “time to increased dilatation of the cervix after infusion” value [2]?
Answer: The value was no more than 8 h.

Question: What about the “degradation of 600 μg/ml porcine relaxin in 3% Methocel gel by HPLC” value [3] of the same substance?
Answer: The value was “degraded very little”.

Question: What about the “cervical ripening, morphology of the pregnant cervix” value [4] of the same substance?
Answer: The value was “significant dilation and cervical ripening were observed”.

Reference: patent US5945402A (Genetech, Inc., priority 1995, dated 1999)
